Laboratory results: article PMC6203393, “Identification of novel antimicrobial peptide from Asian sea bass (Lates calcarifer) by in silico and activity characterization” (PLoS ONE, 2018)
Where two headings read alike, the source gives them in different places.

How the values were obtained:
[1] = RP HPLC retention time of peptides; format: physicochemical; conditions: Inertsil ODS-SP 4.6*250 mm 5μm, linear 0–100% acetonitrile with 0.1% trifluoroacetic acid, 1ml/minute, 30 minutes, highest peak in 214 nm, used as hydrophobicity measure
Procedure: The retention time of the peptides were calculated by RP HPLC using an analytical SHIMADZU Inertsil ODS-SP (4.6*250 mm* 5μm) column. A linear gradient of 0–100% acetonitrile supplemented with 0.1% trifluoroacetic acid was used to elute peptides at a flow rate 1ml/minute for 30 minutes. The highest peak in 214 nm was considered as the retention time for each peptide.

[2] = tested on: Enterococcus faecalis (ATCC:6057); assay: MIC at different pH values; format: cell-based; conditions: 37°C for 18 hours
Procedure: The antibacterial activity of both peptides were assessed against Enterococcus faecalis, a bacteria resistance to alkaline environments (ATCC:6057), at different pH values (pH range: 7.4, 8.5, 9.5, or 10.5). The bacteria were cultured in the BHI medium adjusted to varying pH values (pH range: 7.4, 8.5, 9.5, and 10.5). After incubation at 37°C for 18 hours, the MIC values were determined.

[3] = tested on: clinical A. baumannii isolate; assay: Time-kill analysis; format: cell-based, Acinetobacter baumannii; conditions: 5×10^5 cell/ml in BHI, 37°C, bactericidal = ≥3-log10 reduction, mean of two independent experiments
Procedure: Time-Kill assay was performed to investigate bactericidal activity of both peptides against antibiotic resistant bacteria including S. aureus (MRSA), and clinical A. baumannii isolate. […] Colony count was performed after incubation at 37°C for 0, 2, 4, 8, 12 and 24 h by plating of 10-fold dilutions on LB agar. […] The lower limit of detection for time-kill assays was 2 log10 CFU/ml.

[4] = tested on: Candida glabrata(clinical isolate); format: cell-based; conditions: RPMI medium; 5×10^5 cell/ml; 18 hours at 37 °C; three independent tests
Procedure: (§1) Briefly, a series of two-fold dilutions of each peptide(300, 150, 75, 37.5, 18.75, 9.37, 4.68 and 2.34μg/ml) was created with 0.01% acetic acid and 0.2% BSA (bovine serum albumin) and then 50 μl of each peptide dilution was added to each well of polystyrene flat bottom 96-well microplate (Sigma-Aldrich, Germany). Microbial suspension was diluted with BHI medium or RPMI medium to provide density of 1×10^6 cell/ml and 50 μl of diluted microbial suspension was added to wells containing 50 μl of peptide solution, providing a final concentration of 5×10^5 cell/ml and incubated for 18 hours at 37 °C. The sterility control well contained 100 μl of BHI (or RPMI), while the growth control well contained 100 μl of microbial suspension (5×10^5 cell/ml). The MIC values was defined as the lowest peptide concentration that prevented visible growth of the bacteria. Three independent tests were performed for each peptide concentration.

[5] = tested on: Staphylococcus aureus(MRSA); format: cell-based; conditions: Brain heart infusion; 5×10^5 cell/ml; 18 hours at 37 °C; three independent tests
Procedure: as §1

[6] = tested on: Pseudomonas aeruginosa (ATCC10662); format: cell-based; conditions: Brain heart infusion; 5×10^5 cell/ml; 18 hours at 37 °C; three independent tests
Procedure: as §1

[7] = tested on: Staphylococcus epidermidis (ATCC 1435); format: cell-based; conditions: Brain heart infusion; 5×10^5 cell/ml; 18 hours at 37 °C; three independent tests
Procedure: as §1

[8] = tested on: Candida tropicalis(clinical isolate); format: cell-based; conditions: RPMI medium; 5×10^5 cell/ml; 18 hours at 37 °C; three independent tests
Procedure: as §1

[9] = tested on: Staphylococcus aureus(ATCC 25923); format: cell-based; conditions: Brain heart infusion; 5×10^5 cell/ml; 18 hours at 37 °C; three independent tests
Procedure: as §1

[10] = tested on: Candida albicans (clinical isolate); format: cell-based; conditions: RPMI medium; 5×10^5 cell/ml; 18 hours at 37 °C; three independent tests
Procedure: as §1

[11] = tested on: Acinetobacterbaumannii(Clinical isolate); format: cell-based, Acinetobacter baumannii; conditions: Brain heart infusion; 5×10^5 cell/ml; 18 hours at 37 °C; three independent tests
Procedure: as §1

[12] = tested on: E.coli; assay: Binding affinity to bacteria, cell-based fluorometric ELISA, salt effect; design: species or system Escherichia coli; conditions: in the presence of 10 mM MgCl2; 5-FAM-labeled peptide 2.5μg/ml, 2 hours at 37°C; fluorescence 490/560 nm
Procedure: Antimicrobial peptides bind to the bacterial cell wall through an electrostatic interaction between the positive charge of AMPs with the negative charge of the bacterial cell wall. […] To determine optimal binding conditions, different concentrations of the bacteria (12.5×10^7, 25×10^7, 5×10^8, 1×10^9 cell/ml) and 5-FAM-labeled peptide (1.25, 2.5, 5, and 10 μg/ml) were prepared. Bacterial suspension from each bacterial concentration was added to 4 wells of Maxisorp 96-well microplates (each well 100 μl) and incubated for 3 hours at 37°C without agitation. The planktonic cells were carefully discarded by pipetting and the adherent cells were washed three times with PBS buffer (pH 7.4). Bacteria were fixed with 100 μl of 4% paraformaldehyde and incubated for 0.5 hours at 37°C. The paraformaldehyde was removed and the wells were washed three times with PBS buffer (pH 7.4). The wells were air-dried and fixed cells were confirmed with an inverted microscope. […] After three washing steps with PBS-T buffer, the fluorescence intensity was measured using a fluorescence microplate reader (BioTek Synergy 4, USA) at 490/560 nm (Ex/Em). […] Under the optimized conditions, the binding affinity of both peptides to bacteria was assessed. […]

[13] = tested on: E. faecalis; assay: Antibiofilm assay, pH effect (crystal violet); format: cell-based, Enterococcus faecalis; conditions: peptide at 1/32×MIC, BHI pH 7.4, 8.5, 9.5, 10.5, 24 hours, 595 nm
[14] = tested on: E. faecalis; assay: Antiadhesive assay, pH effect (crystal violet); format: cell-based, Enterococcus faecalis; conditions: peptide at 1/32×MIC, BHI pH 7.4, 8.5, 9.5, 10.5, 1 hour, 595 nm
[15] = tested on: Escherichia coli (ATCC 25922); format: cell-based; conditions: for increase of MIC value: E.coli
Procedure: as §1
In the next step, the pH and salt concentration effect on MIC of AMPs were assayed. To evaluate the effect of cations on the antibacterial activity of AMPs, bacteria were cultured in the BHI medium containing increased concentrations of monovalent or divalent salt including NaCl (62,125,250 and 500 mM), MgCl2 (1,5, 10 and 30 mM), respectively.

FLRSLLRGAKAIYRGARAGWRG [Dicentracin-like, 22-amino-acid mature AMP from Asian sea bass; synthesized with N-terminal 5-FAM and amidated C-terminus]
retention time (main peak) [1]: 20.518 min
MIC(fold increase) ([2]; BHI medium pH 7.4): 1 fold
MIC(fold increase) ([2]; BHI medium pH 8.5): 1 fold
MIC(fold increase) ([2]; BHI medium pH 8.5, listed as dicentracin-like): no reduction
MIC(fold increase) ([2]; BHI medium pH 9.5): 2 fold
MIC(fold increase) ([2]; BHI medium pH 10.5): 4 fold
time after which bactericidal effect was observed ([3]; 1XMIC): 4 h
time after which bactericidal effect was observed ([3]; 2XMIC): 2 h
minimum inhibitory concentration (MIC) [4]: >150 µg/mL
minimum inhibitory concentration (MIC) [5]: 4.68 µg/mL
minimum inhibitory concentration (MIC) [6]: 37.5 µg/mL
minimum inhibitory concentration (MIC) [7]: 1.17 µg/mL
minimum inhibitory concentration (MIC) [8]: 4.68 to 9.37 µg/mL
minimum inhibitory concentration (MIC) [9]: 4.68 µg/mL
minimum inhibitory concentration (MIC) [10]: 4.68 to 9.37 µg/mL
minimum inhibitory concentration (MIC) [11]: 18.75 µg/mL
reduction in affinity binding to bacteria [12]: 1.6 fold
antibiofilm activity (biofilm formation relative to corresponding control) [13]: significantly decrease the bacterial adhesion and biofilm formation at pH values from 7.4 to 9.5
antiadhesive activity (bacterial adhesion relative to corresponding control) [14]: significantly decrease the bacterial adhesion and biofilm formation at pH values from 7.4 to 9.5
Activity (MIC) against E.coli ([15]; BHI medium with MgCl2 1 mM): 4.68 µg/mL
Activity (MIC) against E.coli ([15]; BHI medium with MgCl2 5 mM): 18.75 µg/mL
Activity (MIC) against E.coli ([15]; BHI medium with MgCl2 10 mM): 18.75 µg/mL
Activity (MIC) against E.coli ([15]; BHI medium with MgCl2 30 mM): 75 µg/mL
Activity (MIC) against E.coli ([15]; BHI medium with NaCl 62 mM): 4.68 µg/mL
Activity (MIC) against E.coli ([15]; BHI medium with NaCl 125 mM): 4.68 µg/mL
Activity (MIC) against E.coli ([15]; BHI medium with NaCl 250 mM): 6.05 µg/mL
Activity (MIC) against E.coli ([15]; BHI medium with NaCl 500 mM): 9.37 µg/mL
minimum inhibitory concentration (MIC) ([15]; Brain heart infusion, 5×10^5 cell/ml, 18 hours at 37 °C, lowest concentration preventing visible growth, three independent tests): 4.68 µg/mL
increase of MIC value ([15]; in the presence of 5 mM and 10 mM MgCl2, MIC (MgCl2) /MIC): 4 fold
increase of MIC value ([15]; in the presence of 30 mM MgCl2): 16 fold
increase of MIC value ([15]; in the presence of 500 mM NaCl): 2 fold
Activity (MIC) against E.coli ([15]; Physiological salt concentrations (150 mM NaCl 3 mM CaCl2 2 mM MgCl2)): 4.68 µg/mL
